The experiment deals with β-catenin and SetD1A binding to the TERT promoter in Huh7 cells. Put plainly: Chromatin immunoprecipitation (ChIP) at the TERT promoter. Format: cell-based, human. Conditions: HCC (Huh7) cells, with or without 300 μmol/L H2O2. As for the experimental part: As it has been described before (Lim S O, et al. Gastroenterology. 2008; 135: 2128-40, 40 el-8.; Hoffmeyer K, et al. Science. 2012; 336: 1549-54.), several modified ChIP (chromatin immunoprecipitation) tests were carried out. In the presence or absence of a PI3K inhibitor, an AKT inhibitor, or a GSK3β inhibitor, Huh7 cells were cultured for 4 days with or without a treatment of 300 μmol/L H2O2. Under mild shaking for 20 minutes at room temperature, the cells were fixed by using 1% paraformaldehyde. After that, the cells were rinsed twice with ice-cold PBS; resuspended with 400 μL of micrococcal nuclease buffer (50 mmol/L TrisHCl [pH 8.0], 5 mmol/L CaC12, 100 μg/mL BSA, 10 mmol/L KCl, and protease inhibitor cocktail [Roche, Basel, Switzerland; 4693159001]); and disrupted with 2 mm-diameter zirconium beads (Watson); to have micrococcal nuclease digestion (New England Biolabs, Beverly, Mass., USA; M0247S). Chromatin (150 μg) was collected and diluted in a dilution buffer (0.1% NP-40, 2 mmol/L EDTA, 150 mmol/L NaCl, 20 mmol/L TrisHCl [pH 8.0], protease inhibitor cocktail [Roche]), and a phosphatase inhibitor cocktail [Calbiochem]), and then subjected to pre-clearing with 2 μg digested salmon sperm DNA, 10 μL preimmune serum (Santa Cruz Biotechnology; sc-2027), and Dynabeads Protein G (Life Technologies; 1004D) for 2 hours at 4° C. After the immunoprecipitation, 20 μL of Dynabeads Protein G were added thereto and the culture was continued for 2 hours. The Dynabeads were washed continuously for 10 minutes with TSE 1 (0.1% SDS, 1% Triton X-100, 2 mmol/L EDTA, 20 mmol/L TrisHCl, and 150 mmol/L NaCl), TSE II (0.1% SDS, 1% Triton X-100, 2 mmol/L EDTA, 20 mmol/L TrisHCl, and 500 mmol/L NaCl), and buffer III (0.25 mol/L LiCl, 1% NP-40, 1% deoxycholate, 1 mmol/L EDTA, and 10 mmol/L TrisHCl). After that, the beads were washed 3 times with TE buffer, and extraction was made by using 1% SDS and 0.1 mol/L NaHCO3. To have reverse formaldehyde cross-linking, the elution solution was heated overnight at 65° C. By using NucleoSpin DNA clean-up kit, DNA debris were purified. By using primers specific to the TERT promoter region, the PCR amplified product was quantified by qPCR (ABI 7300; Applied Biosystems, Foster City, Calif., USA). The PCR amplification was normalized against the TERT intron. The primer sequences are as follows: β-catenin interaction site for ChIP (forward primer: TCCCGGGTCCCCGGCCCA (SEQ ID NO:8); reverse primer: […] (SEQ ID NO:9)) and TERT intron for ChIP (forward primer: […] (SEQ ID NO:10); reverse primer: […] (SEQ ID NO:11)). For each of the β-catenin interaction site which has been recorded before, 20-22 bp were added. The antibodies that are used are as follows: rabbit polyclonal anti-β-catenin (1:200, Abcam, Cambridge, Mass., USA; ab6302), mouse monoclonal anti-RNA polymerase II (1:50, Covance, Princeton, N.J., USA; MMS-126R), and rabbit polyclonal anti-SETD1A (1:100, Novus Biologicals, Littleton, Colo., USA; NBP1-81513).
Inventors of the present invention made an investigation to see whether or not the increased chromatin accessibility in TERT promoter during TERT transcription is related with β-catenin. To do so, by using intrinsic β-catenin and an antibody against histone methyl transferase SetD1A which has been reported to promote the TERT transcription based on chromatin remodeling, chromatin immunoprecipitation was carried out. When a PI3K or AKT inhibitor is treated together for chromatin immunoprecipitation, β-catenin and SetD1A, which bind to the TERT promoter in HCC cells, were reduced even in the presence of H2O2 (FIGS. 3A and 3B). However, when the treatment is carried out also with a GSK3p inhibitor, increased binding of β-catenin and SetD1A was shown regardless of a treatment with H2O2 (FIG. 3C).

Regarding `CC[C@H](Nc1ncnc2nc[nH]c12)c1nc2cccc(F)c2c(=O)n1-c1ccccc1` [idelalisib, 5-fluoro-3-phenyl-2-[(1S)-1-(7H-purin-6-ylamino)propyl]-4(3H)-quinazolinone], the “SetD1A binding to the TERT promoter” value is reported as “reduced” and the “β-catenin binding to the TERT promoter” value is on record as “reduced”.

Values taken from patent US10463669B2, “Composition for treating or preventing liver cancer” (Seoul National University R&DB Foundation, priority 2016, dated 2019).
